Data published in ChEMBL document CHEMBL1201862, “PubChem BioAssay data set” (2004).
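Cells were grown in 96-well plates and exposed to each compound for 48 hours at five concentrations; endpoints were interpolated linearly between bracketing concentrations, or set to the highest concentration if not reached. GI50 = concentration required for 50% inhibition of growth.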 Calls of active or inactive are those of the source. Rule as the data show it: active = GI50 up to about 1.1 µM and inactive = higher.

Columns and labels:
Experiment in all cases: DTP human tumour cell line panel, 48 h
HOP-62 = system: HOP-62
ACHN = system: ACHN
OVCAR-8 = system: OVCAR-8
SF-539 = system: SF-539
OVCAR-5 = system: OVCAR-5
T47D = system: T47D
UACC-62 = system: UACC-62
786-0 = system: 786-0
RPMI-8226 = system: RPMI-8226
SK-OV-3 = system: SK-OV-3
MCF7 = system: MCF7
Hs-578T = system: Hs-578T
HT-29 = system: HT-29
SW-620 = system: SW-620
Malme-3M = system: Malme-3M
MDA-N = system: MDA-N
CCRF-CEM = system: CCRF-CEM
UO-31 = system: UO-31
KM12 = system: KM12
SR = system: SR
SNB-19 = system: SNB-19
NCI-H522 = system: NCI-H522
MDA-MB-231 = system: MDA-MB-231
MDA-MB-435 = system: MDA-MB-435
DU-145 = system: DU-145
NCI-H226 = system: NCI-H226
HCT-116 = system: HCT-116
HL-60 = system: HL-60
HOP-92 = system: HOP-92
SF-268 = system: SF-268
SK-MEL-28 = system: SK-MEL-28
HCC 2998 = system: HCC 2998
COLO 205 = system: COLO 205
OVCAR-3 = system: OVCAR-3
BT-549 = system: BT-549
NCI/ADR-RES = system: NCI/ADR-RES
U-251 = system: U-251
UACC-257 = system: UACC-257
SK-MEL-2 = system: SK-MEL-2
HCT-15 = system: HCT-15
IGROV-1 = system: IGROV-1
TK-10 = system: TK-10
PC-3 = system: PC-3
SN12C = system: SN12C
NCI-H460 = system: NCI-H460
OVCAR-4 = system: OVCAR-4
CAKI-1 = system: CAKI-1
EKVX = system: EKVX
MOLT-4 = system: MOLT-4
LOX IMVI = system: LOX IMVI
NCI-H23 = system: NCI-H23
M14 = system: M14
SK-MEL-5 = system: SK-MEL-5
A549 = system: A549
SF-295 = system: SF-295
SNB-75 = system: SNB-75

Measured: GI50

O=C1c2cc([N+](=O)[O-])cnc2S(=O)(=O)N1c1ccc(Br)cc1
> 100 µM: HCT-15
inactive: HOP-62 > 100 µM | ACHN > 100 µM | OVCAR-8 > 100 µM | SF-539 > 100 µM | OVCAR-5 > 100 µM | T47D > 100 µM | UACC-62 > 100 µM | 786-0 > 100 µM | RPMI-8226 > 100 µM | SK-OV-3 > 100 µM | MCF7 > 100 µM | Hs-578T > 100 µM | HT-29 > 100 µM | SW-620 > 100 µM | Malme-3M > 100 µM | MDA-N > 100 µM | CCRF-CEM > 100 µM | UO-31 > 100 µM | KM12 > 100 µM | SR > 100 µM | SNB-19 > 100 µM | NCI-H522 > 100 µM | MDA-MB-231 > 100 µM | MDA-MB-435 > 100 µM | DU-145 > 100 µM | NCI-H226 > 100 µM | HCT-116 > 100 µM | HL-60 > 100 µM | HOP-92 > 100 µM | SF-268 > 100 µM | SK-MEL-28 > 100 µM | HCC 2998 > 100 µM | COLO 205 > 100 µM | OVCAR-3 > 100 µM | BT-549 > 100 µM | NCI/ADR-RES > 100 µM | U-251 > 100 µM | UACC-257 > 100 µM | SK-MEL-2 > 100 µM | IGROV-1 > 100 µM | TK-10 > 100 µM | PC-3 > 100 µM | SN12C > 100 µM | NCI-H460 > 100 µM | OVCAR-4 > 100 µM | CAKI-1 > 100 µM | EKVX > 100 µM | MOLT-4 > 100 µM | LOX IMVI > 100 µM | NCI-H23 > 100 µM | M14 > 100 µM | SK-MEL-5 > 100 µM | A549 > 100 µM | SF-295 > 100 µM | SNB-75 > 100 µM
